Data taken from US20100227869A1, “ENANTIOPURE QUINUCLIDINYLOXY PYRIDAZINES AND THEIR USE AS NICOTINIC ACETYLCHOLINE RECEPTOR LIGANDS” (priority 2006, published 2010).

Row | melting point [°C] | Compound
1 | 154.5 to 159.4 | C(#Cc1ccc(O[C@@H]2CN3CCC2CC3)nn1)c1ccccc1.O=C(O)/C=C/C(=O)O
2 | 151.3 to 157.3 | C(#Cc1ccc(O[C@H]2CN3CCC2CC3)nn1)c1ccccc1.O=C(O)/C=C/C(=O)O
